US8318781B2, “G-protein-conjugated receptor agonist” (Japan Science and Technology Agency, priority 2007, dated 2012)

Experiments:
Assay type in all cases: cell-based
[1] = target: T1, human GPR40 (hGPR40) (Homo sapiens, UniProt O14842); assay: ERK assay, screening for GPR40 ligands in cell line TXGPR40; conditions: TXGPR40 cells; for ERK activation for GPR40 (in words): FIGS. 1-4; for ERK/GPR40 10 μM: ligand 10 μM; for ERK/GPR40 10 μM / ERK/GPR40 100 μM: class relative to LA; for ERK/GPR40 100 μM: ligand 100 μM
T1 construct: expressed in transfected cells; doxycycline-inducible expression vector
T1 sequence (O14842 whole entry): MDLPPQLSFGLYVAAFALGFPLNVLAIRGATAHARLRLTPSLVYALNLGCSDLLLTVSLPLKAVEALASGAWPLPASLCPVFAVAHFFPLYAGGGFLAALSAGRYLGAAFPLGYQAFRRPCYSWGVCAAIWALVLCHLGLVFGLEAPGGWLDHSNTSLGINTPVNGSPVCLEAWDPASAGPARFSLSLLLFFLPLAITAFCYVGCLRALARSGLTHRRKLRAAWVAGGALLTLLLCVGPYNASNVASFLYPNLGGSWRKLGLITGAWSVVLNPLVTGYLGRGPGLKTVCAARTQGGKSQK
Procedure: (§1) This Test 1 was carried out by using the following materials and methods.
(§2) (1) In this test, the cell lines TXGPR40 and TXGPR120 were plated in 35-mm dishes in 5×10^5 cells/per dish.
(§3) Each ligand was dissolved in DMSO, diluted tenfold with the medium to make the total amount of 100 μl. DMSO was used as the negative control, and PMA (phorbol-12-myristate-13-acetate) was used as the positive control.
(§4) (3) The medium was removed from the dish of the cell to reduce the total amount of liquid to 0.9 ml.
(§5) (4) The ligand solution was added dropwise to the cell solution, and dispersed by gently shaking the dish, and allowed to react at room temperature.
(§6) (5) After 5 minutes of reaction, the medium was discarded, and the remaining medium on the dish was removed on ice using an aspirator.
(§7) (6) 150 μl of Lysis buffer (50 mM HEPES (pH 7.0), 150 mM NaCl, 10% glycerol, 1% NonidetP-40, 2 mM MgCl2, 1 mM EDTA, 100 mM NaF, 10 mM sodium phosphate, 1 mM Na3VO4, 20 mM β-glycerophosphate, and Proteinase inhibitor) were added, then the cells were collected using a cell scraper.
(§8) (1) The crude enzyme solution mixed with SDS Sample Buffer was subjected to ultrasonication with a sonifier, then incubated at 90° C. for five minutes.
(§9) (2) The mixture was vortexed and centrifuged at 15,000 rpm for five minutes at 4° C.
(§10) (3) The supernatant of the centrifuged sample was applied to two 7.5% acrylamide gel slabs placed in an electrophoresis tank filled with 1×SDS-PAGE Running Buffer (25 mM Tris, 0.2 M Glycin, and 1% SDS). Electrophoresis was carried out under a constant current of 40 mA for about 80 to 90 minutes.
(§11) (1) A PVDF membrane cut in the same size as the gel slab was immersed in methanol for about 15 seconds and then shaken in Transfer Buffer C solution (25 mM Tris, 0.02% SDS, 2% methanol and 40 mM 6-aminohexanoic acid) at room temperature to swell for 15 minutes. Filter paper for blotting was cut into a 10-cm square.
(§12) (2) On the blotting apparatus were placed sequentially two pieces of filter paper immersed in A solution (0.3 M Tris, 0.02% SDS and 2% methanol), two pieces of filter paper immersed in B solution (25 mM Tris, 0.02% SDS and 2% methanol), and the membrane thereon. The gel slab after electrophoresis, and finally two pieces of filter paper immersed in C solution was placed thereon, and the apparatus was closed.
(§13) (3) The protein was transferred to the membrane at 15 V for 30 minutes.
(§14) (1) The following procedure was all carried out at room temperature. After the protein transfer, the membrane was placed into a vial containing 1×TTBS (0.2 M Tris, 1.5 M NaCl, 0.2% Tween 20) and washed for 15 minutes.
(§15) (2) TTBS was discarded, and about 10 ml of Block Ace was added and blocked on a shaker for one hour.
(§16) (1) The primary antibodies (p44/42 MAP Kinase Antibody and Phospho-p44/42 MAP Kinase Antibody) were each diluted 1000-fold with TTBS.
(§17) (2) After blocking, the Block Ace solution was removed, the solution of the primary antibody was added and allowed to react on the shaker for two hours.
(§18) (1) The secondary antibody (Anti-rabbit Ig, Horseradish Peroxidase linked F(ab′)2 fragments) was diluted 5000-fold with TTBS.
(§19) (2) The primary antibody solution was removed and the membrane was washed three times on the shaker in TTBS for five to ten minutes each.
(§20) (3) TTBS was removed and the solution of secondary antibody was added and left for 1 hour on the shaker.
(§21) (1) 2 ml each of Detection Reagent 1 and Detection Reagent 2 from ECL kit were mixed together on ice.
(§22) (2) The solution of secondary antibody was removed from the membrane reacted with the secondary antibody and then washed three times on the shaker in TTBS for five minutes each.
(§23) (3) The liquid was thoroughly removed from the membrane, which was then placed in a plastic bag, and 2 ml of the Detection Reagent mixture was added per each membrane.
(§24) (4) The membrane was kept in contact with a film in the cassette for one to five minutes, and the film was developed using an automatic developing machine.

[2] = target: T2, human GPR120 (hGPR120) (Homo sapiens, UniProt Q5NUL3); assay: Determination of intracellular Ca2+ concentration (FLIPR), cell line TXGPR120; conditions: for agonistic activity for hGPR120 (in words): cells in which GPR120 has been transgenically expressed; for [Ca^2+]/GPR120 10 μM (ratio vs. LA): relative fluorescence intensity vs LA at 10 μM
T2 construct: expressed in transfected cells; doxycycline-inducible expression vector
T2 sequence (Q5NUL3 1-361): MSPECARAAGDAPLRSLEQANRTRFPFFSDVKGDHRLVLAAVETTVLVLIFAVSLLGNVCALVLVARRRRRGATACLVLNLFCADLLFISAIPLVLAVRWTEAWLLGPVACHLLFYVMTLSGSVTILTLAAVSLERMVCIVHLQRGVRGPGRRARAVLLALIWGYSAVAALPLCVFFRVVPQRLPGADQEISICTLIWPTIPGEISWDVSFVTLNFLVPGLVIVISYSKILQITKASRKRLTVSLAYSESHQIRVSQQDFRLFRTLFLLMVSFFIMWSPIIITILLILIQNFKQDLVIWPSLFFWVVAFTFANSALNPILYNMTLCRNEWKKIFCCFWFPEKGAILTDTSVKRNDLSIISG
Procedure: (§25) (1) In this test, The cell lines TXGPR40, TXGPR120 and GPR120/Flp-in were plated onto a collagen-coated black 96-well plate in 2×10^5 cells/well. The 96-well plates containing the cells were centrifuged and treated with Doxycycline (final concentration 10 μg/mL), incubated in a CO2 incubator for 21 hours, then used for assay.
(§26) (2) The ligand used in this test includes NCP04, NCP14, NCG20, NCG21, NCG22, NCG23, NCP02, NCP03, NCP05, NCP06, NCG14, NCG17, NCG19, NCG28, NCG29, NCG30, NCG31, NCG34, NCG35, NCG37, NCG38, NCG44, NCG45, NCG46, and NCG54. Each ligand was dissolved in DMSO and adjusted to the concentration of 10 mM, then diluted with Hanks' Balanced Salt Solution (pH 7.4) containing 20 mM HEPES (referred to as FLIPR buffer hereinafter) to the final concentration of 1 to 100 μM. 1% DMSO was used as the negative control, and LA was used as the positive control.
(§27) The ligands and controls were placed in different 96-well plates from the plates for the cells.
(§28) (3) The 96-well plate containing the cells was removed from the CO2 incubator. A fluorescent dye prepared in a twofold higher concentration (Ca Assay Kit Component A diluted with FLIPR Buffer) was added in 50 μL/well, then allowed to stand in the dark at room temperature for one hour.
(§29) (4) After one hour, the 96-well plate containing the cells and the 96-well plate in which ligands and controls were prepared were set on FLIPR (Fluorometric Imaging Plate Reader) for determination.
(§30) (5) Fluorometry using FLIPR was carried out at a laser output of 1.0 W for five minutes. […] after the start of the determination, the ligand (25 μL) was added dropwise to the cell plate at a rate of 50 μL/sec. The intensity of fluorescence was automatically digitized by the application program installed in the FLIPR from the image taken by the CCD camera (with exposure time of 0.40 sec). The interval of data sampling was one second for the initial one minute after the start of operation, and six seconds for the subsequent four minutes.
(§31) (6) The maximum fluorescence intensity was obtained from the data showing the change in the fluorescence intensity over time observed in each well. The maximum fluorescence intensity was plotted against ligand concentration, and pEC50 was calculated. The ratio of the fluorescence intensity for each ligand to LA at 10 μM was calculated as the relative intensity of each ligand.

[3] = target: T2, human GPR120 (hGPR120); assay: Determination of intracellular Ca2+ concentration (FLIPR), cell line GPR120/Flp-in; conditions: for [Ca^2+]/GPR120/Flp-In 10 μM (ratio vs. LA): relative fluorescence intensity vs LA at 10 μM
Procedure: as §25, §26, §27, §28, §29, §30, §31

[4] = target: T1, human GPR40 (hGPR40); assay: Determination of intracellular Ca2+ concentration (FLIPR), cell line TXGPR40; conditions: for agonistic activity for GPR40 (in words): cells in which GPR40 has been transgenically expressed; for [Ca^2+]/GPR40 10 μM (ratio vs. LA): relative fluorescence intensity vs LA at 10 μM, TXGPR40 cells
Procedure: as §25, §26, §27, §28, §29, §30, §31

[5] = target: T2, human GPR120 (hGPR120); assay: ERK assay, screening for GPR120 ligands in cell line TXGPR120;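 as to ERK/GPR120 10 μM: signals normalized between DMSO and PMA controls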; conditions: for ERK activation for GPR120 (in words) / ERK/GPR120 10 μM / ERK/GPR120 100 μM: TXGPR120 cells; for ERK activation for GPR120 (in words): FIGS. 5-8; for ERK/GPR120 10 μM: ligand 10 μM; for ERK/GPR120 10 μM / ERK/GPR120 100 μM: class relative to LA; for ERK/GPR120 100 μM: ligand 100 μM
Procedure: as §1, §2, §3, §4, §5, §6, §7, §8, §9, §10, §11, §12, §13, §14, §15, §16, §17, §18, §19, §20, §21, §22, §23, §24

O=C(O)CCCc1ccc(OCCN(c2ccccc2)c2ccccc2)cc1 [NCG29]
ERK activation for GPR40 (in words) [1]: strongly activated ERK | ERK/GPR40 10 μM [1]: ++ (++ denotes 50 to 100% of LA) | ERK/GPR40 100 μM [1]: +++ (+++ denotes a higher value than LA) | EC50 [2]: 12 µM | agonistic activity for hGPR120 (in words) [2]: exhibit a similar effect | [Ca^2+]/GPR120 10 μM (ratio vs. LA) ([2]; TXGPR120 cells): 0.85 | EC50 [3]: 4.27 µM | [Ca^2+]/GPR120/Flp-In 10 μM (ratio vs. LA) ([3]; GPR120/Flp-in cells): 0.88 | EC50 [4]: 20.9 µM | agonistic activity for GPR40 (in words) [4]: showed a specific reactivity | [Ca^2+]/GPR40 10 μM (ratio vs. LA) [4]: 0.21 | ERK activation for GPR120 (in words) [5]: strongly activate ERK | ERK/GPR120 10 μM [5]: +++ (+++ denotes a higher value than LA) | ERK/GPR120 100 μM [5]: +++ (+++ denotes a higher value than LA)

O=C(O)CCCc1ccc(OCCN(c2ccccc2)c2cccnc2)cc1 [NCG30]
ERK activation for GPR40 (in words) [1]: strongly activated ERK | ERK/GPR40 100 μM [1]: + (+ denotes 0 to 100% of LA) | selectivity between GPR40 and GPR120 (in words), from Tables 3 and 4 ([2]; GPR40 versus GPR120, Ca2+ and ERK results): acting relatively mildly for GPR40 but acting strongly for GPR120 | EC50 ([2]; TXGPR120 cells, maximum fluorescence intensity vs ligand concentration, read-out: [Ca^2+]/GPR120 pEC50 (converted)): 15.5 µM | agonistic activity for hGPR120 (in words) [2]: exhibit a similar effect | [Ca^2+]/GPR120 10 μM (ratio vs. LA) ([2]; TXGPR120 cells): 0.71 | EC50 ([3]; GPR120/Flp-in cells, maximum fluorescence intensity vs ligand concentration, read-out: [Ca^2+]/GPR120/Flp-In pEC50 (converted)): 3.72 µM | [Ca^2+]/GPR120/Flp-In 10 μM (ratio vs. LA) ([3]; GPR120/Flp-in cells): 0.88 | [Ca^2+]/GPR40 10 μM (ratio vs. LA) [4]: 0.01 | selectivity for GPR120 in ERK assay (in words) ([5]; GPR120 versus GPR40): selective for GRP120 | ERK activation for GPR120 (in words) [5]: strongly activate ERK | ERK/GPR120 10 μM [5]: ++ (++ denotes 50 to 100% of LA) | ERK/GPR120 100 μM [5]: +++ (+++ denotes a higher value than LA)

O=C(O)CCCc1ccc(OCCN(c2ccccc2)c2nc3ccccc3s2)cc1 [NCG31]
ERK activation for GPR40 (in words) [1]: strongly activated ERK | ERK/GPR40 10 μM [1]: +++ (+++ denotes a higher value than LA) | ERK/GPR40 100 μM [1]: +++ (+++ denotes a higher value than LA) | EC50 [2]: 17 µM | agonistic activity for hGPR120 (in words) [2]: exhibit a similar effect | [Ca^2+]/GPR120 10 μM (ratio vs. LA) ([2]; TXGPR120 cells): 0.61 | EC50 [3]: 6.92 µM | [Ca^2+]/GPR120/Flp-In 10 μM (ratio vs. LA) ([3]; GPR120/Flp-in cells): 0.73 | EC50 [4]: 19.1 µM | agonistic activity for GPR40 (in words) [4]: showed a specific reactivity | [Ca^2+]/GPR40 10 μM (ratio vs. LA) [4]: 0.32 | ERK activation for GPR120 (in words) [5]: strongly activate ERK | ERK/GPR120 10 μM [5]: +++ (+++ denotes a higher value than LA) | ERK/GPR120 100 μM [5]: +++ (+++ denotes a higher value than LA)

Cc1ccnc(N(CCOc2ccc(CCCC(=O)O)cc2)c2ccccc2)c1 [NCG34]
ERK/GPR40 10 μM [1]: + (+ denotes 0 to 100% of LA) | ERK/GPR40 100 μM [1]: +++ (+++ denotes a higher value than LA) | EC50 [2]: 28.8 µM | agonistic activity for hGPR120 (in words) [2]: exhibit a similar effect | [Ca^2+]/GPR120 10 μM (ratio vs. LA) ([2]; TXGPR120 cells): 0.49 | EC50 [3]: 6.92 µM | [Ca^2+]/GPR120/Flp-In 10 μM (ratio vs. LA) ([3]; GPR120/Flp-in cells): 0.81 | EC50 [4]: 22.4 µM | agonistic activity for GPR40 (in words) [4]: showed a specific reactivity | [Ca^2+]/GPR40 10 μM (ratio vs. LA) [4]: 0.43 | ERK activation for GPR120 (in words) [5]: strongly activate ERK | ERK/GPR120 10 μM [5]: +++ (+++ denotes a higher value than LA) | ERK/GPR120 100 μM [5]: +++ (+++ denotes a higher value than LA)
